# Tested on: Mice
# Test: Inhalation anesthesia test in mice, 10 minutes in a rotating drum (pinch, corneal and righting reflex): AC50, LC50 and anesthetic index
# Assay type: in vivo
# Conditions: for AI (anesthetic index, LC50/AC50): calculated from LC50 and AC50, 10 min; for AC50 (minimum concentration required to anesthetize 50% of the mice) / LC50 (minimum concentration required to kill 50% of the mice): inhalation, 10 minutes in rotating drum, at least four graded doses, where two figures are given, the actual value lies between them
# Protocol: Mice were exposed to the anesthetic for a period of 10 minutes in a rotating drum. Observations were then made of the pinch reflex, the corneal reflex and the return of the righting reflex. At least four graded doses were employed to determine the minimum concentration required to anesthetize 50% of the mice used (AC50) and the minimum concentration required to kill 50% of the mice (LC50). The anesthetic index (AI) was then calculated from these minimum concentrations.
SMILES,"AI (anesthetic index, LC50/AC50)",AC50 (minimum concentration required to anesthetize 50% of the mice),LC50 (minimum concentration required to kill 50% of the mice)
"FC(F)(F)C1(F)C(F)(F)C1(Cl)Cl (stereo not drawn) [Example 11, 1,1-diCl-2-CF3-triF-]",~ 2,4 % volume,> 10 % volume
"FC1(F)C(F)(Cl)C1(Cl)Cl (stereo not drawn) [Example 10, 1,1,2-triCl-triF-]",> 3,1.5 % volume,2-10 % volume
"FC1C(F)(F)C1(Cl)Cl (stereo not drawn) [Example 14, 1,1-diCl-2,3,3-triF-]",2-3,< 2 % volume,4-6 % volume
"CC1(F)C(F)(F)C1(Cl)Cl (stereo not drawn) [Example 8, 1,1-diCl-2-CH3-triF-]",4-6,< 1 % volume,4-6 % volume
"CC1(Cl)CC1(F)Cl (stereo not drawn) [Example 9, 1,2-Dichloro-1-fluoro-2-methylcyclopropane]",> 2,< 1 % volume,2-4 % volume
"FC1(F)C(Cl)(Cl)C1(Cl)Cl [Example 13, 1,1,2,2-tetraCl-diF-]",~ 4,0.25 % volume,1 % volume
"FC1(F)C(F)(Cl)C1(F)Cl (stereo not drawn) [Example 12, 1,2-Dichlorotetrafluorocyclopropane]",~ 2,6-10 % volume,< 20 % volume
